In PMC10824666 (Nature Cancer, 2023):
Where two headings read alike, the source gives them in different places. Blank lines part the entries; values can stand above or below the compound they belong to.

Tests used:
Assay in all cases: biochemical
Parameters in all cases: Eurofins DiscoverX kinase panel, competitive binding assay at 1 uM, percent of DMSO control
Details in all cases: competitive binding, percent of DMSO control
BTK = BTK (Homo sapiens, UniProt Q06187)
Procedure: (§1) Extended Data Fig. 3 In vitro characterization of potent and selective KIF18A inhibitors. a, KIF18A compounds (1 µM) were assessed across a panel of kinases (n = 96) by a competitive binding assay. Graph presented as percentage of control (POC); dashed line indicates POC value of 30 (n = 1 experiment). b, Tubulin polymerization analysis. Profile of KIF18A compounds (10 µM) relative to DMSO, paclitaxel (5 µM, tubulin stabilizer), or nocodazole (5 µM, tubulin destabilizer). Graphs presented as tubulin fluorescence signal at 440 nm expressed as arbitrary units (a.u.) versus time (min) with area-under-the-curve (AUC) values (n = 1 or 3 independent experiments). c, Mitotic spindle image analysis. […] Representative images were captured with x40 objective (scale bar = 10 µm) (n = 1 experiment). d-f, KIF18A compound effects on HeLa cells. d, Cells were treated for 96 h with DMSO or KIF18A compounds at the indicated concentrations. KIF18A compound concentration-response profiles presented as count relative to the percentage of DMSO control (POC) with count EC50 values (n = 2 independent experiments in duplicate). e, KIF18A protein localization in cells after treatment for 6 hours with DMSO or AM-1882 (0.05 µM). Cells stained to detect DNA, KIF18A, and centrin-3. Representative images of mitotic cells (n = 3 per group) were captured with x60 objective (scale bar = 5 µm) and graphs of line scan measurements were obtained for DNA, KIF18A, and centrin-3 channels expressed as fluorescence intensity (a.u.) versus distance (µm) (n = 1 experiment). f, Mitotic cell fate imaging analysis. HeLa Kyoto cells co-expressing α-tubulin-EGFP and H2B-mCherry proteins released from a G1S block in media containing DMSO or AM-1882 (0.2 µM). Analysis was performed on cells entering the first mitosis (n = 40 cells per group). Graph presented as time in mitosis (h) versus mitotic cell fate, either complete cell division (CCD) or death in mitosis (DiM). Classified cells exiting mitosis by the number of daughter cells and cell death in […] We screened a small-molecule library of diverse compounds for selective inhibitors of KIF18A MT-ATPase motor activity. Two compound hits were discovered that phenocopied the effects of KIF18A KD in cells; these hits are structurally distinct from the KIF18A inhibitor BTB-1 (refs. [27],[28]). […] However, the potency of the KIF18A inhibitors was unaffected by varying ATP and MT concentrations (Extended Data Fig. 2d). This supports our proposed model in which KIF18A inhibitors occupy an allosteric pocket formed by motor helices α4 and α6 close to the motor MT-binding surface. To screen for potential off-target interactions with essential mitotic kinases, three of the KIF18A compounds were profiled against a large panel of kinases. […] We next investigated whether our KIF18A inhibitors affected tubulin polymerization in vitro in the absence of the KIF18A motor. All four KIF18A compounds had tubulin-polymerization profiles similar to that of the DMSO control and distinct from those of the paclitaxel (MT stabilizer) and nocodazole (MT destabilizer) co

DYRK1a = DYRK1a (Homo sapiens, UniProt Q13627)
Procedure: as §1

MAP3K9 = MAP3K9 (Homo sapiens, UniProt P80192)
Procedure: as §1

TGFBR2 = TGFBR2 (Homo sapiens, UniProt P37173)
Procedure: as §1

p38 γ = target: T1, p38 γ (Homo sapiens, UniProt P53778)
T1 construct: gene MAPK12
T1 sequence (P53778 1-367): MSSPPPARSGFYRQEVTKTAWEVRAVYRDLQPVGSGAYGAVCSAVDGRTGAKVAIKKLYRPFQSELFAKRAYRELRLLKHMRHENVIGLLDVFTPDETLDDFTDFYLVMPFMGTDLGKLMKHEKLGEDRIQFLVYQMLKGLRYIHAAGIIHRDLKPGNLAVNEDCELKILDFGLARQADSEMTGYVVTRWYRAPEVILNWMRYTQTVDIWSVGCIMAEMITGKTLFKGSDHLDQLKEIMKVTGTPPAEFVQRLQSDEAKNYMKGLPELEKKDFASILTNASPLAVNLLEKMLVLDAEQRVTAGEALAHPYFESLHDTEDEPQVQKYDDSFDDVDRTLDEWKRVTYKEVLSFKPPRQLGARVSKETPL
Procedure: as §1

[1] = read-out: Kinome Profiling performed by Eurofins DiscoverX / AM-1882, 1.0 µM / POC
[2] = read-out: Kinome Profiling performed by Eurofins DiscoverX / AM-5308, 1.0 µM / POC
[3] = read-out: Kinome Profiling performed by Eurofins DiscoverX / AM-0277, 1.0 µM / POC

Chain of MAP3K9 (P80192 whole entry): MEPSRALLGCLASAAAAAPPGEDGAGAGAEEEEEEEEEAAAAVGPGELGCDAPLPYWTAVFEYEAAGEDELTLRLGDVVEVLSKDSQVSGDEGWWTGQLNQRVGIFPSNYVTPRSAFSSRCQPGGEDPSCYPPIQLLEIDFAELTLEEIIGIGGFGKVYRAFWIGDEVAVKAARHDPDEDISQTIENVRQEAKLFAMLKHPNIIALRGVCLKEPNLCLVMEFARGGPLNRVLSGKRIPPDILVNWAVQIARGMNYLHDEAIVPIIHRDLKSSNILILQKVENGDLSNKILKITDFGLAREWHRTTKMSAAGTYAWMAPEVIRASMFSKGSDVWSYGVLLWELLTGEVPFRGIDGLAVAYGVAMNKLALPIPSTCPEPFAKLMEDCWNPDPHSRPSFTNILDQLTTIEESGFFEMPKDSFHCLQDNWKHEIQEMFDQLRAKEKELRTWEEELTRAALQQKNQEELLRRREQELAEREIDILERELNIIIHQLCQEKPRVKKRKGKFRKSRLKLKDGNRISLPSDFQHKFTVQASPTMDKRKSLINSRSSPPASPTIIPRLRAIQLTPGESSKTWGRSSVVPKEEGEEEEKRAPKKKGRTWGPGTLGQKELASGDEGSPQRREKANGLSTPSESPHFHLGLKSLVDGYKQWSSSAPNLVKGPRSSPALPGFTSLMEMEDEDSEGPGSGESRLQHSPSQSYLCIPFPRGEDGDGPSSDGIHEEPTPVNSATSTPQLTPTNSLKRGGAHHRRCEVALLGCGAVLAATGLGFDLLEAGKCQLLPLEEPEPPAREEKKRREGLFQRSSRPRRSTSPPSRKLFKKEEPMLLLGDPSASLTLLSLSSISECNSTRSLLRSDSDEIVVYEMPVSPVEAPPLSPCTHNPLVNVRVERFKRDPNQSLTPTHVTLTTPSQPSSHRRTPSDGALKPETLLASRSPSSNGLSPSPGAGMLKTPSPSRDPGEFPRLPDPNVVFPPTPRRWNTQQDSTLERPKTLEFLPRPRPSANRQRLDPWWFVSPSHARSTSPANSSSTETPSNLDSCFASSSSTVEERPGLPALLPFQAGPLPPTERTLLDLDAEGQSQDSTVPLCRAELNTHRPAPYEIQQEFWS
Chain of BTK (Q06187 whole entry): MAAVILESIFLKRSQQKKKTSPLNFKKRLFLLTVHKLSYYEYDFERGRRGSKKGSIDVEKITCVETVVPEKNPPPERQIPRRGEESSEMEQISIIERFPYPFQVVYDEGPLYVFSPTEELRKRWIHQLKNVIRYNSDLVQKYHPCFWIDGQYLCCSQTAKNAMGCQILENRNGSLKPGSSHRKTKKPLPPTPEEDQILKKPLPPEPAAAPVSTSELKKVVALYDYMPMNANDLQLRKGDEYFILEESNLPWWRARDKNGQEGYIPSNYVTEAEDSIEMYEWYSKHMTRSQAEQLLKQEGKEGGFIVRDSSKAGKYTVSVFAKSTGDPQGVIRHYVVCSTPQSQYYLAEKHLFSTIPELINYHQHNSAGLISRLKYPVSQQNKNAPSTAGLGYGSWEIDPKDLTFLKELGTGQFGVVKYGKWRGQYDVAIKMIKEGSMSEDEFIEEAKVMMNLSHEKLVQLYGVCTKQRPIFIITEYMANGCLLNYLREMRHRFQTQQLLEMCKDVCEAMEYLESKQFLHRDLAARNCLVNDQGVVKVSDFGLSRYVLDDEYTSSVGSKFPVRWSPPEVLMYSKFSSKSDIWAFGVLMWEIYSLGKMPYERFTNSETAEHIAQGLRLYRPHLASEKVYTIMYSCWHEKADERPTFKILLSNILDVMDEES
Chain of TGFBR2 (P37173 whole entry): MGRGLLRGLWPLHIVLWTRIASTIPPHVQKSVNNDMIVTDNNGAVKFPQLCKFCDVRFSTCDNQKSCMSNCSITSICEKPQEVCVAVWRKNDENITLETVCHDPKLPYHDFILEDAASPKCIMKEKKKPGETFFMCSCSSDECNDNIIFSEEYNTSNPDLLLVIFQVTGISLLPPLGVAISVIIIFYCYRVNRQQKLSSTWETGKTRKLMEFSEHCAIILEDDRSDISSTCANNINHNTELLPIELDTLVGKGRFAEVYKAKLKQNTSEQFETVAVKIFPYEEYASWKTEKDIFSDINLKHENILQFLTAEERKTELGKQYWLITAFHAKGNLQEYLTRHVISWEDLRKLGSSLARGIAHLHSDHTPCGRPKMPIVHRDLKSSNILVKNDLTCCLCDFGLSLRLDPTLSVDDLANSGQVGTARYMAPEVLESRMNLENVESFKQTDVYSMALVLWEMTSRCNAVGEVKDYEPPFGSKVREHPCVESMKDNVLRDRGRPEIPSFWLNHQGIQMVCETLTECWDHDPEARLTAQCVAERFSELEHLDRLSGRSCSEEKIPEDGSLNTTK

remaining activity at 1 µM (BTK; [1]): 100% | remaining activity at 1 µM (DYRK1a; [1]): 81% | remaining activity at 1 µM (MAP3K9; [1]): 100% | remaining activity at 1 µM (TGFBR2; [1]): 99.5% | remaining activity at 1 µM (p38 γ; [1]): 100%
SMILES: CC(C)(C)NS(=O)(=O)c1cccc(NC(=O)c2ccc(S(=O)(=O)NC(C)(C)C)cc2N2CCC3(CC2)CC3)c1 [AM-1882]

remaining activity at 1 µM (BTK; [2]): 98.5% | remaining activity at 1 µM (DYRK1a; [2]): 100% | remaining activity at 1 µM (MAP3K9; [2]): 95% | remaining activity at 1 µM (TGFBR2; [2]): 100% | remaining activity at 1 µM (p38 γ; [2]): 76.5%
SMILES: C[C@@H]1CN(c2cccc(NC(=O)c3ccc(NS(=O)(=O)CCO)cc3N3CCC4(CC3)CC4)n2)CCO1 [AM-5308]

remaining activity at 1 µM (BTK; [3]): 100% | remaining activity at 1 µM (DYRK1a; [3]): 100% | remaining activity at 1 µM (MAP3K9; [3]): 100% | remaining activity at 1 µM (TGFBR2; [3]): 75% | remaining activity at 1 µM (p38 γ; [3]): 100%
SMILES: CC(C)(CO)Nc1ccc(C(=O)Nc2cccc(S(=O)(=O)C3CCCC3)c2)c(N2CCC3(CC2)CC3)n1 [AM-0277]
